Assays:
Test in all cases: relative viability (nuclei count vs DMSO), 5 days (fraction); higher = more cells survive
Gemcitabine + Phenformin = compound: Nc1ccn([C@@H]2O[C@H](CO)[C@@H](O)C2(F)F)c(=O)n1 [Gemcitabine] + N=C(N)NC(=N)NCCc1ccccc1 [Phenformin] (partner 250 µM)
Method in brief: (§1)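 Lung cancer cell lines in 1536-well plates got either a single drug or a fixed anchor-drug dose together with five library-drug doses (not always all listed) in √10 steps, by pin tool, on the day after seeding. Nuclei were counted after 5 days, and relative viability is the treated-to-vehicle ratio of nuclei counts. Values are medians of duplicate plates.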

Gemcitabine + OSI-027 = compound: Nc1ccn([C@@H]2O[C@H](CO)[C@@H](O)C2(F)F)c(=O)n1 [Gemcitabine] + COc1cccc2cc(-c3nc([C@H]4CC[C@H](C(=O)O)CC4)n4ncnc(N)c34)[nH]c12 [OSI-027] (partner 0.5 µM)
Method in brief: as §1

Gemcitabine + Crizotinib = compound: Nc1ccn([C@@H]2O[C@H](CO)[C@@H](O)C2(F)F)c(=O)n1 [Gemcitabine] + C[C@@H](Oc1cc(-c2cnn(C3CCNCC3)c2)cnc1N)c1c(Cl)ccc(F)c1Cl [Crizotinib] (partner 1 µM)
Method in brief: as §1

Gemcitabine + Trametinib = compound: Nc1ccn([C@@H]2O[C@H](CO)[C@@H](O)C2(F)F)c(=O)n1 [Gemcitabine] + CC(=O)Nc1cccc(-n2c(=O)n(C3CC3)c(=O)c3c(Nc4ccc(I)cc4F)n(C)c(=O)c(C)c32)c1 [Trametinib] (partner 0.02 µM)
Method in brief: as §1

Cell Line | relative viability (Gemcitabine + Phenformin; first compound 0.001 µM) | relative viability (Gemcitabine + Phenformin; first compound 0.003162 µM) | relative viability (Gemcitabine + Phenformin; first compound 0.01 µM) | relative viability (Gemcitabine + Phenformin; first compound 0.03162 µM) | relative viability (Gemcitabine + Phenformin; first compound 0.1 µM) | relative viability (Gemcitabine + OSI-027; first compound 0.001 µM) | relative viability (Gemcitabine + OSI-027; first compound 0.003162 µM) | relative viability (Gemcitabine + OSI-027; first compound 0.01 µM) | relative viability (Gemcitabine + OSI-027; first compound 0.03162 µM) | relative viability (Gemcitabine + OSI-027; first compound 0.1 µM) | relative viability (Gemcitabine + Crizotinib; first compound 0.001 µM) | relative viability (Gemcitabine + Crizotinib; first compound 0.003162 µM) | relative viability (Gemcitabine + Crizotinib; first compound 0.01 µM) | relative viability (Gemcitabine + Crizotinib; first compound 0.03162 µM) | relative viability (Gemcitabine + Crizotinib; first compound 0.1 µM) | relative viability (Gemcitabine + Trametinib; first compound 0.001 µM) | relative viability (Gemcitabine + Trametinib; first compound 0.003162 µM) | relative viability (Gemcitabine + Trametinib; first compound 0.01 µM) | relative viability (Gemcitabine + Trametinib; first compound 0.03162 µM) | relative viability (Gemcitabine + Trametinib; first compound 0.1 µM)
201T | 0.43 | 0.455 | 0.427 | 0.334 | 0.263 | 0.653 | 0.747 | 0.122 | 0.146 | 0.114 | 1.04 | 1.01 | 0.975 | 0.464 | 0.329 | 0.753 | 0.714 | 0.736 | 0.691 | 0.324
A-427 | 0.328 | 0.273 | 0.16 | 0.178 | 0.117 | 0.401 | 0.338 | 0.148 | 0.17 | 0.113 | 0.984 | 0.764 | 0.503 | 0.124 | 0.106 | 0.704 | 0.799 | 0.521 | 0.356 | 0.223
ABC-1 | 0.197 |  | 0.236 | 0.186 | 0.212 | 0.364 |  | 0.218 | 0.252 | 0.116 | 1.2 | 1.4 | 0.829 | 0.342 | 0.114 |  |  |  |  | 
BEN | 0.262 | 0.23 | 0.243 | 0.222 | 0.202 | 0.299 | 0.274 | 0.174 | 0.167 | 0.167 | 0.874 | 0.563 | 0.139 | 0.113 | 0.09 | 1.02 | 0.615 | 0.311 | 0.245 | 0.226
CAL-12T | 0.587 | 0.335 | 0.437 | 0.226 | 0.122 | 0.645 | 0.47 | 0.451 | 0.152 | 0.13 | 0.684 | 0.745 | 0.662 | 0.227 | 0.104 | 0.234 | 0.356 | 0.323 | 0.223 | 0.193
COR-L23 | 0.432 | 0.368 | 0.193 | 0.1 | 0.0829 | 0.955 | 0.627 | 0.264 | 0.0984 | 0.101 | 0.72 | 0.565 | 0.211 | 0.0732 | 0.0754 | 0.584 | 0.656 | 0.248 | 0.116 | 0.099
COR-L 105 | 0.563 | 0.48 | 0.308 | 0.271 | 0.203 | 0.763 | 0.72 | 0.311 | 0.295 | 0.226 | 1.09 | 0.825 | 0.577 | 0.286 | 0.197 | 0.418 | 0.463 | 0.364 | 0.367 | 0.345
Calu-6 |  |  |  |  |  |  |  |  |  |  | 0.784 | 0.585 | 0.279 | 0.145 | 0.123 |  |  |  |  | 
ChaGo-K-1 | 0.444 | 0.378 | 0.204 | 0.17 | 0.159 | 0.516 | 0.458 | 0.212 | 0.185 | 0.164 | 1.12 | 0.961 | 0.578 | 0.36 | 0.314 | 0.897 | 0.757 | 0.461 | 0.189 | 0.155
EKVX | 0.233 | 0.194 | 0.119 | 0.132 | 0.109 | 0.773 | 0.719 | 0.391 | 0.147 | 0.122 | 1 | 0.872 | 0.387 | 0.169 | 0.159 | 0.394 | 0.243 | 0.13 | 0.161 | 0.11
EMC-BAC-2 | 0.566 | 0.525 | 0.425 | 0.205 | 0.204 | 0.422 | 0.423 | 0.212 | 0.214 | 0.223 | 0.778 | 0.768 | 0.594 | 0.14 | 0.149 | 0.938 | 0.941 | 0.524 | 0.284 | 0.273
EPLC-272H | 0.348 | 0.324 | 0.174 | 0.158 | 0.0709 | 0.334 | 0.298 | 0.159 | 0.136 | 0.105 | 0.766 | 0.847 | 0.196 | 0.175 | 0.0681 | 0.301 | 0.301 | 0.248 | 0.18 | 0.106
H3255 | 0.352 | 0.266 | 0.31 | 0.368 | 0.302 | 0.353 | 0.366 | 0.394 | 0.26 | 0.248 | 0.97 | 0.439 | 0.63 | 0.167 | 0.176 | 0.608 | 0.517 | 0.514 | 0.318 | 0.271
HARA | 0.498 | 0.556 | 0.445 | 0.222 | 0.0544 | 0.734 | 0.68 | 0.388 | 0.175 | 0.0508 | 0.975 | 1.02 | 1.02 | 0.3 | 0.124 | 0.592 | 0.635 | 0.797 | 0.143 | 0.107
HCC-15 | 0.47 | 0.492 | 0.331 | 0.144 | 0.0968 | 0.773 | 0.624 | 0.578 | 0.142 | 0.0829 | 0.929 | 0.819 | 0.79 | 0.192 | 0.0758 | 0.369 | 0.383 | 0.363 | 0.196 | 0.0914
HCC-44 | 0.156 | 0.139 | 0.101 | 0.098 | 0.102 | 0.562 | 0.352 | 0.357 | 0.178 | 0.155 | 0.825 | 0.756 | 0.614 | 0.201 | 0.154 | 1.11 | 1.02 | 1.02 | 0.895 | 0.42
HCC-78 | 0.581 | 0.538 | 0.285 | 0.209 | 0.233 | 0.325 | 0.312 | 0.263 | 0.211 | 0.229 | 0.271 | 0.26 | 0.167 | 0.146 | 0.15 | 0.749 | 0.42 | 0.373 | 0.274 | 0.231

Source: the supplement of paper PMC10307832
